From patent US20070093505A1, “2,3-Substituted 5,6-diaryl-pyrazine derivatives as cb1 modulators” (ASTRAZENECA AB, priority 2003, published 2007)

Biological target: T1, hCB1 (Homo sapiens, UniProt P21554)
T1 construct: expressed in transfected cells
Assay: [35S]-GTPγS binding assay on membranes from cells stably transfected with the CB1 gene, inhibition of agonist CP55940
Format: biochemical
Conditions: EC80 concentration of agonist CP55940, membranes of CB1-transfected cells
Description: Compounds of the present invention are active against the receptor product of the CB1 gene. The compounds of the present invention are active at the CB1 receptor (IC50<1 micromolar). Most preferred compounds have IC50<200 nanomolar. The affinity of the compounds of the invention for central cannabinoid receptors is demonstrable in methods described in Devane et al., Molecular Pharmacology, 1988, 34,605 or those described in WO01/70700 or EP 656354. Alternatively the assay may be performed as follows.
10 μg of membranes prepared from cells stably transfected with the CB1 gene were suspended in […] of 100 mM NaCl, 5 mM MgCl2, 1 mM EDTA, 50 mM HEPES (pH 7.4), 1 mM DTT, 0.1% BSA and 100 μM GDP. To this was added an EC80 concentration of agonist (CP55940), the required concentration of test compound and 0.1 μCi [^35S]-GTPγS. […] Filters were then covered with scintilant and counted for the amount of [^35S]-GTPγS retained by the filter.
Activity is measured in the absence of all ligands (minimum activity) or in the presence of an EC80 concentration of CP55940 (maximum activity). […] At various concentrations of novel ligand, activity is calculated as a percentage of the maximum activity and plotted. The data are fitted using the equation y=A+((B−A)/1+((C/x)UD)) and the IC50 value determined as the concentration required to give half maximal inhibition of GTPγS binding under the conditions used.

T1 sequence (P21554 whole entry): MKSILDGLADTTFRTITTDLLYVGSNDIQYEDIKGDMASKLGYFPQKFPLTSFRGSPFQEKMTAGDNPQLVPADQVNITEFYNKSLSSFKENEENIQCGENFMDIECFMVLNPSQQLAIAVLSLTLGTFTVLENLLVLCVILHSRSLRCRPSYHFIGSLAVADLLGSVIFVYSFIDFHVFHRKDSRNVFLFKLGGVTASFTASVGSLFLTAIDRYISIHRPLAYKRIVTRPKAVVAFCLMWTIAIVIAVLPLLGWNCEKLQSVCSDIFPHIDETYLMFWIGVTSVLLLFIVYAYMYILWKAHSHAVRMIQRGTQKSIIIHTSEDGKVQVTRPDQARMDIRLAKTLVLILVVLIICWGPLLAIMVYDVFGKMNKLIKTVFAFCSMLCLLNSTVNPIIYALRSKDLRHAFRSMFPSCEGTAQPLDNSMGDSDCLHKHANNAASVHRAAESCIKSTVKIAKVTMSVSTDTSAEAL

IC50: 1.8 nM
SMILES: CC1COC(c2nc(-c3ccc(Cl)cc3)c(-c3ccc(Cl)cc3)nc2C(=O)OC(C)(C)C)=N1 (stereo not shown) [Example 5, 5,6-bis(4-chlorophenyl)-3-(4-methyl-4,5-dihydrooxazol-2-yl)-pyrazine-2-carboxylic acid tert-butylester]
